Drawing on ChEMBL document CHEMBL4837247, “Discovery of a Potent Dual SLK/STK10 Inhibitor Based on a Maleimide Scaffold” (J Med Chem, 2021), this text covers IC50 for 1 compound.

The target of this assay is Serine/threonine-protein kinase 10 (Homo sapiens, UniProt O94804). Kind of assay: Inhibition of STK10 (unknown origin) expressed in Sf9 cells assessed as transfer of radiolabelled phosphate group from ATP by reaction biology method.
Sequence of Serine/threonine-protein kinase 10 (O94804 whole entry): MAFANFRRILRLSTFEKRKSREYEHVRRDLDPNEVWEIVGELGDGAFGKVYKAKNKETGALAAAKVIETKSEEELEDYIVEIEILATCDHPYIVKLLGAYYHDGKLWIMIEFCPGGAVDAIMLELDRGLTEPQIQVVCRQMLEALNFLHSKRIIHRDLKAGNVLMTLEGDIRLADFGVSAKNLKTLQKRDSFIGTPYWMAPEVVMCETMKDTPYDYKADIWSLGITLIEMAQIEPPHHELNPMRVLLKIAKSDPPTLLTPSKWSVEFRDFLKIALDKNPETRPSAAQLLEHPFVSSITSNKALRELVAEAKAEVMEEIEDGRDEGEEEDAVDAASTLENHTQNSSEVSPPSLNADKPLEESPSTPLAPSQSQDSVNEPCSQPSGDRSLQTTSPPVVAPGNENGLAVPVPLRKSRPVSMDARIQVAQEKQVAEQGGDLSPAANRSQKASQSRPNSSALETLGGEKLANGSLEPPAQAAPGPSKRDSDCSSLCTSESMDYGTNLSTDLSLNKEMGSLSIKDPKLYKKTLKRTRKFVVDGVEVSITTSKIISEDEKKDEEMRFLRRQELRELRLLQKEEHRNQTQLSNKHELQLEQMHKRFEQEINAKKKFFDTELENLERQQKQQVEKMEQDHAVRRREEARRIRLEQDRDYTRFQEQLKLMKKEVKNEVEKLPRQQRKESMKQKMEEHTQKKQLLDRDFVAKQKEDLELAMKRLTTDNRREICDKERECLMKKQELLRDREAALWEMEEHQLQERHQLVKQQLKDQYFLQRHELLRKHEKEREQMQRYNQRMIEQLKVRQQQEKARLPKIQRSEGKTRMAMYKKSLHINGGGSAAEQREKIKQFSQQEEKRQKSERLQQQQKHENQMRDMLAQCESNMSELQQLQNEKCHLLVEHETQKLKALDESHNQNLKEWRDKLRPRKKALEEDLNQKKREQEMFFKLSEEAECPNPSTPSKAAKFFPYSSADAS

In the case of `Cn1cc(C2=C(c3cn(CCCSC(=N)N)c4ccccc34)C(=O)NC2=O)c2ccccc21` [BISINDOLYLMALEIMIDE IX], the 50% inhibitory concentration (IC50) worked out at 0.099 µM.
